The values below come from patent publication US11905294B2, “Imidazo[1,5-a]pyrazine derivatives as PI3Kδ inhibitors” (BEIGENE, LTD., priority 2017, dated 2024).

Holding throughout (format): biochemical
The target in one assay is PI3K (p110δ/p85α) (Homo sapiens, UniProt O00329). Kind of assay: PI3Kδ assay (ADP-Glo Kinase Assay). To be noted: recombinant enzyme; IC50 (nM) or max inhibition (%) at 0.5 μM. In outline: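 Recombinant p110δ/p85α with lipid substrate and serially diluted compound, 0.5 hr RT preincubation; ATP-started reaction ran 1 hr at RT. ADP formed read by ADP-Glo luminescence; IC50 from four-parameter logistic fit of residual activity.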
Sequence of PI3K (p110δ/p85α) (O00329 whole entry): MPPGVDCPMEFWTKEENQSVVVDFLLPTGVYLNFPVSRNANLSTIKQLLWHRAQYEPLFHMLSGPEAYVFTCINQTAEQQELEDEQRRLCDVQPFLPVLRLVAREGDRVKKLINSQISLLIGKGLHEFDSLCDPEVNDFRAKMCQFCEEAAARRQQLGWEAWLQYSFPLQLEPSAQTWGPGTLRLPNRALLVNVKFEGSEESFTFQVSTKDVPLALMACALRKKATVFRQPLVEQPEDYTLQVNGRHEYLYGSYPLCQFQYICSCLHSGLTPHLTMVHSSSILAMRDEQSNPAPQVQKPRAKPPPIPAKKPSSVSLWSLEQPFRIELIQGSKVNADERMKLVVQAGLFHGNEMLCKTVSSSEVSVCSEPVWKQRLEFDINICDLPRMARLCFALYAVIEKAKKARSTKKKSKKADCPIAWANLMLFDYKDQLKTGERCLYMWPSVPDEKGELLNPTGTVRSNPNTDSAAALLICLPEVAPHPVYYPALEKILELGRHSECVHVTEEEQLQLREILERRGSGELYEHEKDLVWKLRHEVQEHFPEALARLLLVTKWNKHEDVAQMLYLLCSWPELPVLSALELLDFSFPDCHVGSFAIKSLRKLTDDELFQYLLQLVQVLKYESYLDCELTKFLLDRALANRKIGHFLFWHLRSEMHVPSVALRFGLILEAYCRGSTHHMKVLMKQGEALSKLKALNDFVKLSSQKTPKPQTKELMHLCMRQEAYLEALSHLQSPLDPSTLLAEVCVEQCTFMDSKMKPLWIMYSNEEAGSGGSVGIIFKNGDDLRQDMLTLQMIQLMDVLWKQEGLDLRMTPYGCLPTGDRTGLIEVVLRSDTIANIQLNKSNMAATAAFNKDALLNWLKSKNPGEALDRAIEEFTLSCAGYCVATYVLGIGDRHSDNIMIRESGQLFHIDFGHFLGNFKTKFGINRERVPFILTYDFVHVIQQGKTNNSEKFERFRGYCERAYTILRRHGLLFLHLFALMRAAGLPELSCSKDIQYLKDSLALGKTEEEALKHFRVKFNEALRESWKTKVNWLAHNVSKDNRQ
Sequence of PI3K (p110δ/p85α) (P27986 whole entry partner): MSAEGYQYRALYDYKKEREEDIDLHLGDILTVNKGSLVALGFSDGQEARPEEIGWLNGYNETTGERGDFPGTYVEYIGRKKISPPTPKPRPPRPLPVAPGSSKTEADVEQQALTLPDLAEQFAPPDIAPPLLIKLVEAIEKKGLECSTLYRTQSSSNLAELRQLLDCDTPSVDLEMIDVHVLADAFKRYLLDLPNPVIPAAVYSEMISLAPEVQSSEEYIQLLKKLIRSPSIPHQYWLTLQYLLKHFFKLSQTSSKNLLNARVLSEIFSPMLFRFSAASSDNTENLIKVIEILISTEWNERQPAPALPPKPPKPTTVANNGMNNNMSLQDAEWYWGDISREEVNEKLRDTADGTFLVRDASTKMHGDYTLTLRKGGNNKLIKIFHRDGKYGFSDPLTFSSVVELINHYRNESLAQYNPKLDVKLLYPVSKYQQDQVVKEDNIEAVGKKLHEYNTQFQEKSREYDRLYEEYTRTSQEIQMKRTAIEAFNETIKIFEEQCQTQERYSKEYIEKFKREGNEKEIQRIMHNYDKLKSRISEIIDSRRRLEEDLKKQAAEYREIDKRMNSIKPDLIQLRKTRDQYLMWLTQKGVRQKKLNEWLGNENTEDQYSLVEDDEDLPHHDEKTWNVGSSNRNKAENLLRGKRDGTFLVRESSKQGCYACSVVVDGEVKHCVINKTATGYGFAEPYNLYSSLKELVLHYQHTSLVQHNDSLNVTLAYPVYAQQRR
Background: ADP-Glo turns the ADP formed in a reaction into a luminescent signal.

A further assay concerns the target PI3K (p110γ) (Homo sapiens, UniProt P48736). Kind of assay: PI3Kγ assay (ADP-Glo Kinase Assay). The settings on record: recombinant enzyme; IC50 (nM) or max inhibition (%) at 0.5 μM.
Another assay deals with PI3K (p110α/p85α) (Homo sapiens, UniProt P42336). Kind of assay: PI3Kα assay (ADP-Glo Kinase Assay). The settings on record: recombinant enzyme; IC50 (nM) or max inhibition (%) at 0.5 μM.
Sequence of PI3K (p110α/p85α) (P42336 whole entry): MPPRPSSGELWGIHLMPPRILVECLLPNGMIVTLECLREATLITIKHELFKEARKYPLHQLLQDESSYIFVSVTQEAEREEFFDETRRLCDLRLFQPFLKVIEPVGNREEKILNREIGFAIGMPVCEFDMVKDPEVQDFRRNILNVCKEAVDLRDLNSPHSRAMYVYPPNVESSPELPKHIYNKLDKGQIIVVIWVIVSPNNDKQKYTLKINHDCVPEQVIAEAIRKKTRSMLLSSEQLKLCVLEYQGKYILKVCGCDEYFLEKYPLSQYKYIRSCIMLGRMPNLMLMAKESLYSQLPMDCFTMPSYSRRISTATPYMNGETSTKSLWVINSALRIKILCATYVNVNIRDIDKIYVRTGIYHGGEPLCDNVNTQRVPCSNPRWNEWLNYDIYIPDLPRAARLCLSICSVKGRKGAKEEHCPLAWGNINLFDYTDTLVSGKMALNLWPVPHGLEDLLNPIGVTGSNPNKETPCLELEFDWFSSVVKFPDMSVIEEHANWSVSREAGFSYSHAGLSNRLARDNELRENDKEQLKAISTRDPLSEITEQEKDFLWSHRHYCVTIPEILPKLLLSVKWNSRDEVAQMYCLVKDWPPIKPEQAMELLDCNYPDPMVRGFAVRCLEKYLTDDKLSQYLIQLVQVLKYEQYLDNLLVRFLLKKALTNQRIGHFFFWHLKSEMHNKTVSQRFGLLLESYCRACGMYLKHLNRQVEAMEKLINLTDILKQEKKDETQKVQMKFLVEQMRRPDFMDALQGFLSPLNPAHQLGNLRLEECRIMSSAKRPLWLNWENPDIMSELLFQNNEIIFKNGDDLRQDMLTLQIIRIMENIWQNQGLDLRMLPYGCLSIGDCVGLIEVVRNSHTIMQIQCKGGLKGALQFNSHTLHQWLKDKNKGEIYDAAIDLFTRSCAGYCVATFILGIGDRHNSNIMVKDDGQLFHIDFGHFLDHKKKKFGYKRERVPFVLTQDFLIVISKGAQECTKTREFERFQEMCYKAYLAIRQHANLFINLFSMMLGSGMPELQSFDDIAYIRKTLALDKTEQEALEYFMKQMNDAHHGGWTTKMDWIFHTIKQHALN
Sequence of PI3K (p110α/p85α) (P27986 whole entry partner): as the sequence (P27986 whole entry partner) above
The next assay deals with PI3K (p110β/p85α) (Homo sapiens, UniProt P42338). Description: PI3Kβ assay (ADP-Glo Kinase Assay).
Sequence of PI3K (p110β/p85α) (P42338 whole entry): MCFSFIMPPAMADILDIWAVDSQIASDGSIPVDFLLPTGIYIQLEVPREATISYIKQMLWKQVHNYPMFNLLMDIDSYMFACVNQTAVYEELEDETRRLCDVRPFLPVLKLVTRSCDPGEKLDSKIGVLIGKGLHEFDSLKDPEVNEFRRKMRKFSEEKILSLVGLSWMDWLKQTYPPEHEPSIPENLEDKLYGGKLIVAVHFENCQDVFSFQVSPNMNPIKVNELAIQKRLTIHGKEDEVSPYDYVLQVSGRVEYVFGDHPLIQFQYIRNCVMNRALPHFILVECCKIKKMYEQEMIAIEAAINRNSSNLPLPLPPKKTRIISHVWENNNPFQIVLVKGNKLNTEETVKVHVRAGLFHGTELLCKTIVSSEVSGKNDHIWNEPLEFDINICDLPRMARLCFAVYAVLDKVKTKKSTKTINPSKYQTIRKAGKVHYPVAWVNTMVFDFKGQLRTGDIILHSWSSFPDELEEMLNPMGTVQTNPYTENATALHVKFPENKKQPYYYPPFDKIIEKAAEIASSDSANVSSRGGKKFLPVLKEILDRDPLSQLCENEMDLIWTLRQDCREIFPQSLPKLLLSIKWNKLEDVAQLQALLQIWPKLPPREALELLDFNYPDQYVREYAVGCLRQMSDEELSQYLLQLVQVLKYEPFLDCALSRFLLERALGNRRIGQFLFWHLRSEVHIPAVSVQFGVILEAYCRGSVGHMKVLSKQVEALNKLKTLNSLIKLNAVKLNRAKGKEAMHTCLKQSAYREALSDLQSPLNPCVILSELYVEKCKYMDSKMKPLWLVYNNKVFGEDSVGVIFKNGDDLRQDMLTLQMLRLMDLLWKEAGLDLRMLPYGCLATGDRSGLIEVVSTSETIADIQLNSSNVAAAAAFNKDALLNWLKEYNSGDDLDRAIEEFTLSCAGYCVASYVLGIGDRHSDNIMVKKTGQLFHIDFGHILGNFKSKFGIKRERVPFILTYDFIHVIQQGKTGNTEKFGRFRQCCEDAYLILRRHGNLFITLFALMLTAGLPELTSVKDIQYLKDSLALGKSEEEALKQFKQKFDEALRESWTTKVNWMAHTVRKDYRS
Sequence of PI3K (p110β/p85α) (P27986 whole entry partner): as the sequence (P27986 whole entry partner) above
Where [1] appears, read: read-out: Enzyme activity IC50 PI3Kβ.

One may read the IC50 as the concentration needed to halve the response being measured.

Where two headings read alike, the source gives them in different places.

Sequence of PI3K (p110γ) (P48736 whole entry): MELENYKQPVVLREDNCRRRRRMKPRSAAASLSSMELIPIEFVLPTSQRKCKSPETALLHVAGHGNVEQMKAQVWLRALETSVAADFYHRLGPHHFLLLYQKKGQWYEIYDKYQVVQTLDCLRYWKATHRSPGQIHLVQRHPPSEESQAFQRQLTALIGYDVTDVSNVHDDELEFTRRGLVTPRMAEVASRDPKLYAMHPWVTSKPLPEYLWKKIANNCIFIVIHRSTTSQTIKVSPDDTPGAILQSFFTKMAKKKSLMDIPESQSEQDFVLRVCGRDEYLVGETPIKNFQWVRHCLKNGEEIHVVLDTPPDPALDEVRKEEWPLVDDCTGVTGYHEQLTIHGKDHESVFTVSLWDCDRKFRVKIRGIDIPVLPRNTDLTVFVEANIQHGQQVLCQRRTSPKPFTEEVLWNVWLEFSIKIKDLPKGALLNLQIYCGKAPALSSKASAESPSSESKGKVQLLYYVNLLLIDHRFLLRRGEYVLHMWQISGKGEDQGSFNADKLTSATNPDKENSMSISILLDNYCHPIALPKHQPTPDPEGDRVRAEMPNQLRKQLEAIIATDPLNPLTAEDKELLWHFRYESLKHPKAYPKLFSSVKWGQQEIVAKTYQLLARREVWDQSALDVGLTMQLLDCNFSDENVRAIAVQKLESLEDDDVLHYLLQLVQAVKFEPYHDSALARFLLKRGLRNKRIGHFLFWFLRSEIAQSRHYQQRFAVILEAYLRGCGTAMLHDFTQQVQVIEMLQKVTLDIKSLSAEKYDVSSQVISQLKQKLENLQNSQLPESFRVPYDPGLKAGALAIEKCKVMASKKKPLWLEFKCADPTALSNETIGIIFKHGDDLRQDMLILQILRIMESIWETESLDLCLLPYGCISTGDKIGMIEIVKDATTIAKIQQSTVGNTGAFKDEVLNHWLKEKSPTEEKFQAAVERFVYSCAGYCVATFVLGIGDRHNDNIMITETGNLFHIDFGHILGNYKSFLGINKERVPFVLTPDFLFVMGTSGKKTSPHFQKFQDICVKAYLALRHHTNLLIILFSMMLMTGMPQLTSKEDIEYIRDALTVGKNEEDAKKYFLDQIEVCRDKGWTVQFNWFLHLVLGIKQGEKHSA

For the compound `Cc1nc([C@@H](C)c2cc(Cl)c(F)c(C(=O)N[C@@H]3CCC[C@H]3O)c2OC(C)C)n2ccnc(N)c12` [Compound 58, 3-((S)-1-(8-amino-1-methylimidazo[1,5-a]pyrazin-3-yl)ethyl)-5-chloro-6-fluoro-N-((1R,2R)-2-hydroxycyclopentyl)-2-isopropoxybenzamide], the IC50 was 2.2 nM on PI3K (p110δ/p85α), 2800 nM at PI3K (p110γ), 14000 nM on PI3K (p110α/p85α) and 16000 nM on PI3K (p110β/p85α) (setting [1]).

As for `Cc1nc([C@@H](C)c2cc(Cl)c(F)c(C(=O)N[C@@H](C)c3ccnc(C(F)(F)F)c3)c2OC(C)C)n2ccnc(N)c12` [Compound 59A, 3-((S)-1-(8-amino-1-methylimidazo[1,5-a]pyrazin-3-yl)ethyl)-5-chloro-6-fluoro-2-isopropoxy-N-((S)-1-(2-(trifluoromethyl)pyridin-4-yl)ethyl)benzamide], the 50% inhibitory concentration (IC50) is 2.1 nM on PI3K (p110δ/p85α), 1200 nM at PI3K (p110γ), 8300 nM on PI3K (p110α/p85α) and 14000 nM on PI3K (p110β/p85α) (setting [1]).

On to `Cc1nc([C@@H](C)c2cc(Cl)c(F)c(C(=O)N[C@H](C)c3ccnc(C(F)(F)F)c3)c2OC(C)C)n2ccnc(N)c12` [Compound 59B, 3((S)-1-(8-amino-1-methylimidazo[1,5-a]pyrazin-3-yl)ethyl)-5-chloro-6-fluoro-2-isopropoxy-N-((R)-1-(2-(trifluoromethyl)pyridin-4-yl)ethyl)benzamide], for which the IC50 at PI3K (p110δ/p85α) was found to be 1.5 nM; at PI3K (p110γ), 2800 nM; on PI3K (p110α/p85α) it was 14000 nM; at PI3K (p110β/p85α) (setting [1]) it was 26000 nM.

With `Cc1nc([C@@H](C)c2cc(Cl)c(F)c(C(=O)N[C@H]3C[C@H](O)C3)c2OC(C)C)n2ccnc(N)c12` [Compound 61, 3-((S)-1-(8-amino-1-methylimidazo[1,5-a]pyrazin-3-yl)ethyl)-5-chloro-6-fluoro-N-((trans)-3-hydroxycyclobutyl)-2-isopropoxybenzamide], the IC50 at PI3K (p110δ/p85α) amounted to 1.4 nM; at PI3K (p110γ), 4500 nM; at PI3K (p110α/p85α), 21000 nM; at PI3K (p110β/p85α) (setting [1]), 12000 nM.

Regarding `Cc1nc([C@@H](C)c2cc(Cl)c(F)c(C(=O)N[C@H]3CC[C@@H](O)CC3)c2OC(C)C)n2ccnc(N)c12` [Compound 62, 3((S)-1-(8-amino-1-methylimidazo[1,5-a]pyrazin-3-yl)ethyl)-5-chloro-6-fluoro-N-((cis)-4-hydroxycyclohexyl)-2-isopropoxybenzamide], the IC50 on PI3K (p110δ/p85α) came out at 1.4 nM; on PI3K (p110γ), 9000 nM; at PI3K (p110α/p85α), 17000 nM; on PI3K (p110β/p85α) (setting [1]), 29000 nM.

In the case of `Cc1nc([C@@H](C)c2cc(Cl)c(F)c(C(=O)N[C@H]3C[C@@H](O)C3)c2OC(C)C)n2ccnc(N)c12` [Compound 63, 3-((S)-1-(8-amino-1-methylimidazo[1,5-a]pyrazin-3-yl)ethyl)-5-chloro-6-fluoro-N-((cis)-3-hydroxycyclobutyl)-2-isopropoxybenzamide], the concentration for half-maximal inhibition (IC50) is 1.1 nM at PI3K (p110δ/p85α), 4200 nM on PI3K (p110γ), 38000 nM at PI3K (p110α/p85α) and 7400 nM at PI3K (p110β/p85α) (setting [1]).

For `Cc1nc([C@@H](C)c2cc(Cl)c(F)c(C(=O)N3CCC4(CC3)COC4)c2OC(C)C)n2ccnc(N)c12` [Compound 64, (S)-(3-(1-(8-amino-1-methylimidazo[1,5-a]pyrazin-3-yl)ethyl)-5-chloro-6-fluoro-2-isopropoxyphenyl)(2-oxa-7-azaspiro[3.5]nonan-7-yl)methanone], the IC50 was 1.6 nM at PI3K (p110δ/p85α), 14000 nM at PI3K (p110γ), more than 50000 nM on PI3K (p110α/p85α) and more than 50000 nM at PI3K (p110β/p85α) (setting [1]).

Turning to `Cc1nc([C@@H](C)c2cc(Cl)c(F)c(C(=O)NCC3(O)CC3)c2OC(C)C)n2ccnc(N)c12` [Compound 66, (S)-3(1-(8-amino-1-methylimidazo[1,5-a]pyrazin-3-yl)ethyl)-5-chloro-6-fluoro-N-((1-hydroxycyclopropyl)methyl)-2-isopropoxybenzamide], the half-maximal inhibitory concentration (IC50) at PI3K (p110δ/p85α) came to 2.2 nM; at PI3K (p110γ), 3400 nM; at PI3K (p110α/p85α) it was 14000 nM; at PI3K (p110β/p85α) (setting [1]) it was 12000 nM.

`Cc1nc([C@@H](C)c2cc(Cl)c(F)c(C(=O)N3CC4(CCOC4)C3)c2OC(C)C)n2ccnc(N)c12` [Compound 68, (S)-(3-(1-(8-amino-1-methylimidazo[1,5-a]pyrazin-3-yl)ethyl)-5-chloro-6-fluoro-2-isopropoxyphenyl)(6-oxa-2-azaspiro[3.4]octan-2-yl)methanone]: the half-inhibitory concentration (IC50) at PI3K (p110δ/p85α) worked out at 1.7 nM; on PI3K (p110γ) it was 4600 nM; at PI3K (p110α/p85α), 40000 nM; on PI3K (p110β/p85α) (setting [1]), 23000 nM.

On to `CO[C@@H]1CCCN(C(=O)c2c(F)c(Cl)cc([C@H](C)c3nc(C)c4c(N)nccn34)c2OC(C)C)C1` [Compound 69, (3-((S)-1-(8-amino-1-methylimidazo[1,5-a]pyrazin-3-yl)ethyl)-5-chloro-6-fluoro-2-isopropoxyphenyl)((R)-3-methoxypiperidin-1-yl)methanone], for which the half-inhibitory concentration (IC50) at PI3K (p110δ/p85α) is 2 nM; at PI3K (p110γ) it was 5200 nM; at PI3K (p110α/p85α), more than 50000 nM; on PI3K (p110β/p85α) (setting [1]), more than 50000 nM.

Consider `CO[C@H]1CCN(C(=O)c2c(F)c(Cl)cc([C@H](C)c3nc(C)c4c(N)nccn34)c2OC(C)C)C1` [Compound 70, (3-((S)-1-(8-amino-1-methylimidazo[1,5-a]pyrazin-3-yl)ethyl)-5-chloro-6-fluoro-2-isopropoxyphenyl)((S)-3-methoxypyrrolidin-1-yl)methanone], for which the 50% inhibitory concentration (IC50) on PI3K (p110δ/p85α) was 1.9 nM; at PI3K (p110γ), 6700 nM; on PI3K (p110α/p85α), 41000 nM; at PI3K (p110β/p85α) (setting [1]) it was more than 50000 nM.

Turning to `Cc1nc([C@@H](C)c2cc(Cl)c(F)c(C(=O)N[C@H]3CC[C@H](O)C3)c2OC(C)C)n2ccnc(N)c12` [Compound 71, 3-((S)-1-(8-amino-1-methylimidazo[1,5-a]pyrazin-3-yl)ethyl)-5-chloro-6-fluoro-N-((1S,3S)-3-hydroxycyclopentyl)-2-isopropoxybenzamide], the half-inhibitory concentration (IC50) at PI3K (p110δ/p85α) worked out at 1.4 nM; on PI3K (p110γ), 3400 nM; on PI3K (p110α/p85α), 14000 nM; at PI3K (p110β/p85α) (setting [1]) it was 13000 nM.

As to “(S)-3-(1-(8-amino-1-methylimidazol[1,5-a]pyrazin-3-yl)ethyl)-5-chloro-6-fluoro-2-isopropoxy-N-(4-methoxyphenyl)benzamide [Compound 29]”, the half-inhibitory concentration (IC50) on PI3K (p110δ/p85α) came to 1.1 nM; on PI3K (p110γ), 2100 nM; on PI3K (p110α/p85α), 11000 nM; at PI3K (p110β/p85α) (recombinant enzyme, 2 hrs kinase reaction, IC50 (nM) or max inhibition (%) at 0.5 μM), 9900 nM.
